Assay results as given in a melting point compilation (Tetko et al.; mined from patent text by program, amines drawn as free bases though some values may be those of a salt).

| melting point | SMILES |
| --- | --- |
| 163 to 164 °C | Cc1cc(-n2nc(C#N)cc2-c2ccc(S(C)(=O)=O)cc2)ccc1Cl |
| 260 to 261 °C | COc1cc(CN/C=C2\C(=O)NC(=O)c3ccc(Br)cc32)ccc1O |
| 55 to 57 °C | CCCC(=O)NCCc1cccc2ccc(SC)cc12 |
| 79 to 83 °C | Cc1ccc(N2CCCN(c3ccnc4sc(C(N)=O)c(N)c34)CC2)cc1F |
| 140 °C | COc1ccc(NC(=O)O[C@H]2COC(c3ccccc3)=N[C@@H]2c2ccccc2)cc1 (racemic) |
| 173 to 175 °C | OC(c1c(Br)ccc2c1OCO2)c1cccc2cnccc12 (centres undefined) |
| 180 to 185 °C | CC(=O)Nc1ccc(C(=N)Nc2cc(NC(=O)/C=C/c3ccccc3C(F)(F)F)c(F)cc2F)cc1 |
| 35 to 35.5 °C | CC(I)CC(F)(F)C(F)(F)C(F)(F)C(F)(F)CC(C)I (centres undefined) |
| 145 to 146 °C | CCCCS(=O)C1CC(=O)N1CC(=O)CCc1ccccc1 (centres undefined) |
| 116 to 118 °C | O=C1CCC(C(=O)O)C(=O)N1 (centres undefined) |
| 240 to 243 °C | CNCCCn1cc2c(C3C(=O)Nc4ccc(Br)cc43)ncnc2n1 (centres undefined) |
| 241 to 242 °C | O=C(O)c1cccc(-c2nc(-c3cc(Cl)sc3Cl)cs2)c1 |
| 223 to 224 °C | CC1CN(C)CC=C1C(=O)N1c2ccccc2NC(=O)c2ccccc21 (centres undefined) |
| 204 to 207 °C | OCCNc1cc(Nc2ccc(N3CCOCC3)cc2)ncn1 |
| 191 °C | Cc1nnc(NCCN2CCC(Nc3nc4ccccc4n3Cc3ccc(F)cc3)CC2)s1 |

Further lines, the molecule ahead of its results:

| SMILES | melting point |
| --- | --- |
| CCOc1cc2cc(C(=O)O)sc2cc1OCC | 243 to 245 °C |
| Cc1ccc(-c2cn(C)cc(-c3cccc(C)c3)c2=O)cc1 | 155 to 157 °C |
| CNCC1Cc2cc(C)cc(-c3cccc(OC)c3OC)c2O1 (centres undefined) | 85 to 89 °C |
| COc1ccc(N2Cc3cnc(Nc4ccccc4)nc3N(C[C@@H](C)O)C2=O)cc1 | 189 to 193 °C |
| CCOc1ccc2c(c1)n(C1CCCCC1)c(=O)n2S(=O)(=O)c1ccc([N+](=O)[O-])cc1OC | 162 °C |
| O=C(O)c1cnn2c(C(F)(F)F)cc(-c3ccc(C(F)(F)F)c(F)c3)nc12 | 212 °C |
| O=[N+]([O-])c1cccc(/C=C/c2nc(C3CCCCC3)cs2)c1 | 102 to 104 °C |
| Cc1nc(C)c(Cl)c(NCc2nccc(N(C)CCCSCCn3c([N+](=O)[O-])cnc3C)c2Cl)n1 | 123 to 126 °C |
| CCCCn1c(=O)c2nn(S(=O)(=O)c3cccc(C(F)(F)F)c3)cc2n(CCCC)c1=O | 163 to 165 °C |
| COCCOc1cc2ncnc(NC3=CC(=O)C(N4CCOCC4)=CC3=O)c2cc1OC | 239 to 243 °C |
| CC(C)(CO)NS(=O)(=O)c1cnc(NC(=O)c2cnn3c(C(F)(F)F)cc(-c4ccc(C(F)(F)F)cc4)nc23)s1 | 292 °C |
| CC(=NO)C(C)(C)NCC(O)CNC(C)(C)C(CCn1ccnc1[N+](=O)[O-])=NO (centres undefined) | 62 to 64 °C |
| COc1cc(CCN2CCc3cc(O)ccc3C2)cc(OC)c1OC | 180 to 186 °C |
| Cc1cc(Br)cn2cc(-c3ccc(C#N)cc3)nc12 | 209 to 210 °C |
| NC(=NCC(F)(F)F)Nc1nc(CO)ns1 | 123 to 125 °C |
| Fc1nccn1C(c1ccccc1)(c1ccccc1)c1ccccc1 | 182 to 185 °C |
| CC(=O)C(=Cc1ccc(Cl)c([N+](=O)[O-])c1)C(C)=O | 110 to 111 °C |
| CCCCCCCCSc1nc(NCC(C)(C)c2cc(C(C)(C)C)c(O)c(C(C)(C)C)c2)nc(NC2CC(C)(C)NC(C)(C)C2)n1 | 130 °C |
| CCOc1ccc2c(c1)C(=O)Cc1c(Cl)cccc1S2 | 121 to 123 °C |
| COC(=O)Cc1cc(C(=O)c2ccccc2Cl)c(N)s1 | 102 to 105 °C |
| Cc1ccc(NC(=O)N(C)Cc2cccc3c2C(=O)N(C2CCC(=O)NC2=O)C3=O)cc1Cl (centres undefined) | 193 to 195 °C |
| Cc1cc(I)cc2c(=O)[nH]oc12 | 232 to 233 °C |
| Clc1ccc(Nc2nnc(Cc3ccncc3)c3ccccc23)cc1Cl | 249 to 250 °C |
| Cc1cccc2c1nc(-c1ccccc1F)n2CC(O)C(C)(C)C (centres undefined) | 178 to 179 °C |
